Read-outs that look alike come from different tables or passages of the source.
Assays:
[1] = target: T1, human α2C-adrenoceptor (Homo sapiens, UniProt P18825); experiment: α2C-Adrenoceptor binding experiment ([3H] MK912 displacement, crude membrane sample)
T1 construct: expressed in transfected cells; host or cells: COS-1 cells
T1 sequence (P18825 1-462): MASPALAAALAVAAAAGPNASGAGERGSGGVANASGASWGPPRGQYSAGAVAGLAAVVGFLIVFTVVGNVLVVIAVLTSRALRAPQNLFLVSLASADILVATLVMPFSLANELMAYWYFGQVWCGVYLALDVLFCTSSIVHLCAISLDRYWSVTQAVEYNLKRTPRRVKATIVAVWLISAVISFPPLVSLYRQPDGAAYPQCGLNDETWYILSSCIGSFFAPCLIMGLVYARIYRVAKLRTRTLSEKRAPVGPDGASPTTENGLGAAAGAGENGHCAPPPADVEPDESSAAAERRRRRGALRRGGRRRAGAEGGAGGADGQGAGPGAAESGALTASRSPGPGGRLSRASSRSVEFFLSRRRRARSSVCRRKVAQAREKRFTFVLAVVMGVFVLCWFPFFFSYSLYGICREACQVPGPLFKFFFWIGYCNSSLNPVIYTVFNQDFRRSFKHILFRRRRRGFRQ
Experimental: The subject experiment was performed by a method improved from the method described in Uhlen et al., Journal of Pharmacology and Experimental Therapeutics (1994), 1558-1565. Briefly, human α2C-adrenoceptor expressing COS-1 cells were homogenized with 50 mM Tris-HCl buffer (pH 7.4) containing 12.5 mM magnesium hydrochloride and 1 mM EDTA. The resultant homogenate was centrifuged at 48,000×g for 20 minutes at 4° C. twice. The precipitate was suspended in 50 mM Tris-HCl buffer (pH 7.4) containing 12.5 mM magnesium hydrochloride and 1 mM EDTA to give a protein concentration of 150 μg/ml. This suspension was used in binding experiments as a crude membrane sample. The crude membrane sample (0.5 ml, 75 μg protein) was reacted with [^3H] MK912 (final concentration 0.08 nM) at 25° C. for 60 minutes. After completion of the reaction, the reaction mixture was vacuum filtered on GF/B glass fiber filter pre-immersed in 0.3% polyethyleneimine for 2 hours, using a cell harvester for binding experiments. The filter was placed in a glass vial containing 8 ml of Aquasol 2, and the radioactivity thereof was measured with a liquid scintillation counter. The amount of binding in the presence of 10 μM rauwolcine was taken as non-specific binding. The value obtained by subtracting non-specific binding from the total binding in the absence of 10 μM rauwolcine was taken as specific binding. Each of the test compounds was dissolved in 100% dimethyl sulfoxide solution and added to the membrane sample simultaneously with [^3H] MK912. IC50 values were calculated from inhibition curves at concentrations from 0.1 nM to 1 μM.

[2] = target: T2, human α2A-adrenoceptor (Homo sapiens, UniProt P08913); experiment: α2A-Adrenoceptor binding experiment ([3H] MK912 displacement, crude membrane sample); settings: membranes of human α2A-adrenoceptor expressing COS-7 cells; [3H] MK912 1 nM; 25° C., 60 minutes; read-out: Ability to Inhibit (IC50, nM) α 2A
T2 construct: expressed in transfected cells; host or cells: COS-7 cells
T2 sequence (P08913 1-465): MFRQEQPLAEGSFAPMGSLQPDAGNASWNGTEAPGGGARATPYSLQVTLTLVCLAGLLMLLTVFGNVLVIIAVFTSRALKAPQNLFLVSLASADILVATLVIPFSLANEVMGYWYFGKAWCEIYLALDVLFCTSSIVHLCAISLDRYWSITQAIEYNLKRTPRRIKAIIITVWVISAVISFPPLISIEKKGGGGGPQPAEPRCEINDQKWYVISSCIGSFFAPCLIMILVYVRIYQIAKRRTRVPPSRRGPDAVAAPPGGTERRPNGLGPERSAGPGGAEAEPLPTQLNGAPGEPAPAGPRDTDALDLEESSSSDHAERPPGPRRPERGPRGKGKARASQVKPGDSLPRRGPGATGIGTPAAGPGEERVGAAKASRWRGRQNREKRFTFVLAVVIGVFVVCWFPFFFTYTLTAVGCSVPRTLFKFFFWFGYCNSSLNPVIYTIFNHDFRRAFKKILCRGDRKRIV
Experimental: The subject experiment was performed by a method improved from the method described in Uhlen et al., Journal of Pharmacology and Experimental Therapeutics (1994), 1558-1565. Briefly, human α2A-adrenoceptor expressing COS-7 cells were homogenized with 50 mM Tris-HCl buffer (pH 7.4) containing 12.5 mM magnesium hydrochloride and 1 mM EDTA. The resultant homogenate was centrifuged at 48,000×g for 20 minutes at 4° C. twice. The precipitate was suspended in 50 mM Tris-HCl buffer (pH 7.4) containing 12.5 mM magnesium hydrochloride and 1 mM EDTA to give a protein concentration of 200 μg/ml. This suspension was used in binding experiments as a crude membrane sample. The crude membrane sample (0.1 ml, 20 μg protein, reaction volume 0.2 ml) was reacted with [^3H] MK912 (final concentration 1 nM) at 25° C. for 60 minutes. After completion of the reaction, the reaction mixture was vacuum filtered on GF/C glass fiber plate pre-immersed in 0.3% polyethyleneimine for 2 hours, using a Filtermate Harvester. Microscinti-0 (40 μl) was added to the plate, and the radioactivity was measured with Top Count (PerkinElmer). The amount of binding in the presence of 10 μM rauwolcine was taken as non-specific binding. The value obtained by subtracting non-specific binding from the total binding in the absence of 10 μM rauwolcine was taken as specific binding. Each of the test compounds was dissolved in 100% DMSO solution and added to the membrane sample simultaneously with [^3H] MK912. IC50 values were calculated from inhibition curves at concentrations from 1 nM to 10 μM.

[3] = membranes of human α2C-adrenoceptor expressing COS-1 cells, [3H] MK912 0.08 nM, 25° C., 60 minutes, read-out: Ability to Inhibit (IC50, nM) α 2C

Cl.NC(=O)C(CCCN1CCc2oc3ccccc3c2C1)(c1ccc(F)cc1)c1ccc(F)cc1 [Compound 3, 5-(3,4-dihydro[1]benzofuro[3,2-c]pyridine-2(1H)-yl)-2,2-bis(4-fluorophenyl)pentanoic acid amide]
melting point: 174 to 179.5 °C
IC50 [1, 3]: 5.8 nM
IC50 [2]: 204 nM

O=C(O)C(CCCN1CCc2oc3ccccc3c2C1)(c1ccc(F)cc1)c1ccc(F)cc1 [Compound 2, 5-(3,4-dihydro[1]benzofuro[3,2-c]pyridine-2(1H)-yl)-2,2-bis(4-fluorophenyl)pentanoic acid]
IC50 [1, 3]: 142 nM
IC50 [2]: 935 nM

N#CC(CCCN1CCc2oc3ccc(Cl)cc3c2C1)(c1ccccc1)c1ccccc1 [Compound 11, 5-(8-chloro-3,4-dihydro-[1]-benzofuro[3,2-C]pyridine-2(1H)-yl)-2,2-diphenyl-pentanenitrile]
IC50 [1, 3]: 203 nM
IC50 [2]: 1720 nM

c1ccc(C(CCCN2CCc3oc4ccccc4c3C2)c2ccccc2)cc1 [Compound 15, 2-(4,4-diphenylbutyl)-1,2,3,4-tetrahydro-[1]-benzofuro[3,2-C]pyridine]
IC50 [1, 3]: 10 nM
IC50 [2]: 243 nM

Cl.N#CC(CCCN1CCc2oc3ccccc3c2C1)(c1ccccc1)c1ccccc1 [Compound 5, 5-(3,4-dihydro[1]benzofuro[3,2-c]pyridine-2(1H)-yl)-2,2-diphenylpentanenitrile]
melting point: 195 to 199 °C
IC50 [1, 3]: 5.7 nM
IC50 [2]: 139 nM

COC(=O)C(CCCN1CCc2oc3ccccc3c2C1)(c1ccc(F)cc1)c1ccc(F)cc1 [Compound 1, Methyl 5-(3,4-dihydro[1]benzofuro[3,2-c]pyridine-2(1H)-yl)-2,2-bis(4-fluorophenyl)pentanoate]
IC50 [1, 3]: 28 nM
IC50 [2]: 416 nM

COc1ccc2oc3c(c2c1)CN(CCCC(C#N)(c1ccccc1)c1ccccc1)CC3 [Compound 13, 5-(8-methoxy-3,4-dihydro-[1]-benzofuro[3,2-C]pyridine-2(1H)-yl)-2,2-diphenyl-pentanenitrile]
IC50 [1, 3]: 53 nM
IC50 [2]: 563 nM

N#CC1(CCCN2CCc3oc4ccccc4c3C2)c2ccccc2Oc2ccccc21 [Compound 16, 9-[3-(3,4-dihydro-[1]-benzofuro[3,2-C]pyridine-2(1H)-yl)-propyl]-9H-xanthene-carbonitrile]
IC50 [1, 3]: 12 nM
IC50 [2]: 102 nM

N#CC(CCCN1CCc2[nH]c3ccccc3c2C1)(c1ccccc1)c1ccccc1 [Compound 8, 2,2-diphenyl-5-(1,3,4,5-tetrahydro-2H-pyrido[4,3-b]indole-2-yl)-pentanenitrile]
IC50 [1, 3]: 121 nM
IC50 [2]: 1290 nM

Cn1c2c(c3ccccc31)CN(CCCC(C#N)(c1ccccc1)c1ccccc1)CC2 [Compound 9, 5-(5-methyl-1,3,4,5-tetrahydro-2H-pyrido[4,3-b]indole-2-yl)-2,2-diphenyl-pentanenitrile]
IC50 [1, 3]: 280 nM
IC50 [2]: 4830 nM

Cl.N#CC(CCCN1CCc2oc3ccccc3c2C1)(c1ccc(F)cc1)c1ccc(F)cc1 [Compound 4, 5-(3,4-dihydro[1]benzofuro[3,2-c]pyridine-2(1H)-yl)-2,2-bis(4-fluorophenyl)pentanenitrile]
melting point: 113.5 to 120.5 °C
IC50 [1, 3]: 9.3 nM
IC50 [2]: 136 nM

N#CC(CCCN1CCc2oc3ccc(F)cc3c2C1)(c1ccccc1)c1ccccc1 [Compound 10, 5-(8-fluoro-3,4-dihydro-[1]-benzofuro[3,2-C]pyridine-2(1H)-yl)-2,2-diphenyl-pentanenitrile]
IC50 [1]: 28 nM
IC50 [2]: 504 nM

N#CC(CCCN1CCc2sc3ccccc3c2C1)(c1ccccc1)c1ccccc1 [Compound 7, 5-(3,4-dihydro-[1]-benzothieno[3,2-C]pyridine-2(1H)-yl)-2,2-diphenyl-pentanenitrile]
IC50 [1, 3]: 299 nM
IC50 [2]: 1480 nM
